From US20060160197A1 (priority 2004, published 2006)

How the values were obtained:
Format in all cases: physicochemical
[1] = Example 15 reactive solvent extraction, 90% Alamine 336/10% xylenes, 75° C.; details: pH 2 to 3
Protocol: (§1) A variety of analytical methods can be employed to analyze the reactants and products produced using the present methods include HPLC, GC, ion selective electrodes, MS, NMR, etc. HPLC was used to measure glycolic acid and various related products. Briefly, samples are diluted with water (as needed to be within HPLC detection range) and mixed 1:1 with 0.2 M n-propanol in water (HPLC internal standard). HPLC Analytical Method: (BioRad HPX 87H ion exclusion column (BioRad, Hercules, Calif.), 300 mm×7.8 mm; 0.01 N H2SO4 mobile phase; 1.0 mL/min flow at 50° C.; 10 μL injection volume; RI detector and UV 210 nm, 20 min analysis time). HPLC Equipment: (Waters 2695 ‘Alliance’ Separations Module, 2410 Refractive Index Detector, 2487 Dual λ Absorbance Detector and Empower Pro Software (Waters Corp, Milford, Mass.).
Solvent Extraction Using Approximately 90% C8-C10 Trialkylamine in Combination with 10% Xylenes at 75° C.
(§2) Into a 4-mL glass reactor equipped with magnetic stir bar was placed 1 mL of a mixed solvent containing 90% (volume/volume) Alamine® 336 (Cognis), 10% (volume/volume) xylenes (mixed xylene isomers). The pH of an aqueous solution of ammonium glycolate (5 wt % to 40 wt %) was adjusted to pH 2 to 3 with concentrated sulfuric acid, then 1 mL of the resulting aqueous solution was added to the reactor. The resulting mixture was stirred for 30 minutes at 75° C.

[2] = Example 17 back extraction with aqueous glycolic acid from loaded solvent (70% Alamine 336/10% MIBK/20% kerosene), 120° C.; details: 40 psig nitrogen
Protocol: as §1
Following the procedures in Example 1, into a 1-L cylindrical glass vessel on an extraction mixer (mix by rotating back and forth vertically) was placed 100 mL of a mixed solvent containing 70% (volume/volume) Alamine® 336 (Cognis), 10% (volume/volume) methyl isobutyl ketone (MIBK) and 20% (volume/volume) kerosene. The pH of an aqueous solution of ammonium glycolate (10 wt % to 50 wt %) was adjusted to approximately pH 2 to 3 with concentrated sulfuric acid, then 100 mL of the resulting aqueous solution was added to the extraction mixer. […]

[3] = Example 9 reactive solvent extraction, 90% Alamine 336/10% 1-octanol, 75° C.; details: pH 2 to 3
Protocol: as §1
Solvent Extraction Using Approximately 90% C8-C10 Trialkylamine in Combination with 10% 1-Octanol at 75° C.
as §2, with “1-octanol.” for “xylenes (mixed xylene isomers).”

[4] = Example 7 reactive solvent extraction, 50% Alamine 336/10% MIBK/40% kerosene, 75° C.; details: pH 2 to 3
Protocol: as §1
Solvent Extraction Using Approximately 50% C8-C10 Trialkylamine in Combination with 10% Methyl Isobutyl Ketone and 40% Kerosene at 75° C.
as §2, with “50%” for “90%”, “methyl isobutyl ketone (MIBK) and 40% (volume/volume) kerosene.” for “xylenes (mixed xylene isomers).”

[5] = Example 2 reactive solvent extraction, 70% Alamine 336/10% MIBK/20% kerosene, 50° C.; details: pH 2 to 3
Protocol: as §1
Solvent Extraction Using Approximately 70% C8-C10 Trialkylamine in Combination with 10% Methyl Isobutyl Ketone and 20% Kerosene at 50° C.
as §2, with “70%” for “90%”, “methyl isobutyl ketone (MIBK) and 20% (volume/volume) kerosene.” for “xylenes (mixed xylene isomers).”, “50°” for “75°”

[6] = Example 18 back extraction using water from loaded solvent (70% Alamine 336/10% MIBK/20% kerosene), 140° C.; details: back extraction into deionized water, 40 psig nitrogen
Protocol: as §1
Following the procedures in Example 1, into a 1-L cylindrical glass vessel on an extraction mixer (mix by rotating back and forth vertically) was placed 100 mL of a mixed solvent containing 70% (volume/volume) Alamine® 336 (Cognis), 10% (volume/volume) methyl isobutyl ketone (MIBK) and 20% (volume/volume) kerosene. The pH of an aqueous solution of ammonium glycolate (10 wt % to 50 wt %) was adjusted to approximately pH 2 to 3 with concentrated sulfuric acid, then 100 mL of the resulting aqueous solution was added to the extraction mixer. The resulting mixture was stirred for 60 minutes at room temperature. […] The organic phase was collected and used in the back extraction. This organic phase containing glycolic acid is referred as “loaded solvent” below.
Back Extraction Using Water from a Loaded Solvent of Approximately 70% C8-C10 Trialkylamine in Combination with 10% Methyl Isobutyl Ketone and 20% Kerosene
Into a 85-mL pressure reaction glass tube (pressure reaction vessel, from Andrews Glass Co.) equipped with magnetic stir bar and double dip tubes was placed 10 mL deionized water and 10 mL of the loaded solvent (see Example 16). The vessel was then closed, and the headspace purged with nitrogen. The resulting mixture was stirred for 60 minutes at 140° C. under 40 psig (˜275.8 kPa) nitrogen. The stirring was stopped and the two phases allowed to separate at 140° C., then the organic phase was sampled under pressure through the top dip tube into a Hoke cylinder, and aqueous phases was sampled under pressure through the bottom dip tube into another Hoke cylinder.

[7] = initial 3.6 wt % glycolic acid in aqueous phase
[8] = initial 8.5 wt % glycolic acid in aqueous phase
[9] = initial 12.1 wt % glycolic acid in aqueous phase
[10] = initial 16.1 wt % glycolic acid in aqueous phase
[11] = initial 20.6 wt % glycolic acid in aqueous phase
[12] = initial 25.1 wt % glycolic acid in aqueous phase
[13] = initial 29.1 wt % glycolic acid in aqueous phase
[14] = initial 32.8 wt % glycolic acid in aqueous phase

Partition coefficient (wt % org./wt % aq.) [1, 7]: 0.55
Partition coefficient (wt % org./wt % aq.) [1, 8]: 0.55
Partition coefficient (wt % org./wt % aq.) [1, 9]: 0.66
Partition coefficient (wt % org./wt % aq.) [1, 10]: 0.64
Partition coefficient (wt % org./wt % aq.) [1, 11]: 0.65
Partition coefficient (wt % org./wt % aq.) [1, 12]: 0.73
Partition coefficient (wt % org./wt % aq.) [1, 13]: 0.75
Partition coefficient (wt % org./wt % aq.) [1, 14]: 0.72
Partition coefficient (wt % org./wt % aq.) ([2]; initial 20.0 wt % glycolic acid in aqueous phase, 16.0 wt % in loaded solvent): 0.59
Partition coefficient (wt % org./wt % aq.) ([2]; initial 40.0 wt % glycolic acid in aqueous phase, 17.5 wt % in loaded solvent): 0.51
Partition coefficient (wt % org./wt % aq.) [3, 7]: 0.54
Partition coefficient (wt % org./wt % aq.) [3, 8]: 0.56
Partition coefficient (wt % org./wt % aq.) [3, 9]: 0.62
Partition coefficient (wt % org./wt % aq.) [3, 10]: 0.63
Partition coefficient (wt % org./wt % aq.) [3, 11]: 0.73
Partition coefficient (wt % org./wt % aq.) [3, 12]: 0.75
Partition coefficient (wt % org./wt % aq.) [3, 13]: 0.73
Partition coefficient (wt % org./wt % aq.) [3, 14]: 0.70
Partition coefficient (wt % org./wt % aq.) [4, 7]: 0.38
Partition coefficient (wt % org./wt % aq.) [4, 8]: 0.32
Partition coefficient (wt % org./wt % aq.) [4, 9]: 0.35
Partition coefficient (wt % org./wt % aq.) [4, 10]: 0.28
Partition coefficient (wt % org./wt % aq.) [4, 11]: 0.33
Partition coefficient (wt % org./wt % aq.) [4, 12]: 0.35
Partition coefficient (wt % org./wt % aq.) [4, 13]: 0.35
Partition coefficient (wt % org./wt % aq.) [4, 14]: 0.35
Partition coefficient (wt % org./wt % aq.) [5, 7]: 0.32
Partition coefficient (wt % org./wt % aq.) [5, 8]: 0.66
Partition coefficient (wt % org./wt % aq.) [5, 9]: 0.63
Partition coefficient (wt % org./wt % aq.) [5, 10]: 0.74
Partition coefficient (wt % org./wt % aq.) [5, 11]: 0.69
Partition coefficient (wt % org./wt % aq.) [5, 12]: 0.83
Partition coefficient (wt % org./wt % aq.) [5, 13]: 0.68
Partition coefficient (wt % org./wt % aq.) [5, 14]: 0.61
Partition coefficient (wt % org./wt % aq.) ([6]; initial 3.9 wt % glycolic acid in loaded solvent): 0.48
Partition coefficient (wt % org./wt % aq.) ([6]; initial 11.3 wt % glycolic acid in loaded solvent): 0.37
Partition coefficient (wt % org./wt % aq.) ([6]; initial 16.0 wt % glycolic acid in loaded solvent): 0.34
Partition coefficient (wt % org./wt % aq.) ([6]; initial 17.5 wt % glycolic acid in loaded solvent): 0.35
Structure (SMILES): O=C(O)CO [glycolic acid]
